One data set concerns MIA rat model of OA. In words: MIA trial 1 weight bearing (daily s.c. clonidine 0.1, fluocinolone 0.002, morphine 6 mg/kg). It counts as in vivo. The protocol:
Weight bearing (WB; incapacitance) was measured five times per day, once per week, using a Linton incapacitance meter (Stoelting Co., Wood Dale, IL, USA). Rats were acclimated to the meter before study initiation, and, similarly, immediately before WB, the animals were placed in the meter and allowed to acclimate for 2–5 minutes. Each hind paw was placed on a separate force plate so that the force exerted by each side could be averaged over a 5-second interval, and the mean of three readings was taken for each data point. Right paw force was compared with that on the left side for each group to confirm that animals were displaying incapacitance and/or pain behavior. Differences in force (left minus right) and right paw force as a percentage of the total force exerted by both paws were determined and compared between groups.
Following isoflurane anesthesia, 50 μl (2 mg) of MIA was injected into the synovial space of the left knee. Animals were randomly assigned to groups, and pain behavior was assessed 7, 14, 21, and 28 days following MIA injection and intervention using WB with the Stoelting incapacitance meter (trial 1) or the dRS test (trials 2 and 3). […] Animals received MIA treatment and then saline control or therapeutic. […] Histopathology was performed at each time point and at study termination. All studies were conducted in accordance with the International Association for the Study of Pain Guidelines and were approved by the Algos Therapeutics, Inc. Institutional Animal Care and Use Committee (IACUC) before initiation. Those running the studies were blind to the treatments. See Additional file 1 for further details. […]
dosing were housed three per cage. Animals had free access to food and water and were maintained […]
The animal colony was maintained at approximately 21 °C. All experiments were conducted in accordance with the International Association for the Study of Pain Guidelines.

For data set [1] the following is noted: rat, in vivo.
Method: Using the MMT/MCLT model, a number of the same agents were tested via systemic delivery and
using incapacitance /weight bearing as a measure of pain.
Data set [2] can be described thus: MIA trial 2 clinical observations. Conditions: tacrolimus i.p. daily. It counts as in vivo, rat.

SMILES strings stand for the structures. Where two headings read alike, the source gives them in different places.

On to `Clc1cccc(Cl)c1N=C1NCCN1` [Clonidine], for which the “Weight bearing, hours after dosing with significant difference” value in the data set on MIA rat model of OA (day 14) amounted to 1 h; with MIA rat model of OA (day 21, BL baseline), 1 h.
Take `C=CC[C@@H]1/C=C(\C)C[C@H](C)C[C@H](OC)[C@H]2O[C@@](O)(C(=O)C(=O)N3CCCC[C@H]3C(=O)O[C@H](/C(C)=C/[C@@H]3CC[C@@H](O)[C@H](OC)C3)[C@H](C)[C@@H](O)CC1=O)[C@H](C)C[C@@H]2OC` [Tacrolimus]: the Clinical observation result in data set [1] and in data set [2] was “blood in the stool” in each case.
Consider `CC1(C)O[C@@H]2C[C@H]3[C@@H]4C[C@H](F)C5=CC(=O)C=C[C@]5(C)[C@@]4(F)[C@@H](O)C[C@]3(C)[C@]2(C(=O)CO)O1` [Fluocinolone, Fluocinolone Acetonide], for which, in the data set with MIA rat model of OA (day 21, BL baseline), the “Weight bearing, hours after dosing with significant difference” value is reported as “BL^b, 1”.

The values are drawn from PMC4721142, “Randomized controlled studies on the efficacy of antiarthritic agents in inhibiting cartilage degeneration and pain associated with progression of osteoarthritis in the rat” (Arthritis Research & Therapy, 2016).
